Assay results: patent publication US9738610B2, “Indazole derivatives and uses thereof” (Whitehead Institute for Biomedical Research, priority 2012, dated 2017)
Where two headings read alike, the source gives them in different places.

Experiments:
[1] = system: C. albicans CaCi-2; experiment: CaCi-2 growth inhibition in the presence of 8 μg/ml fluconazole (Alamar Blue); assay type: cell-based, Candida albicans
Experimental: Fluconazole was obtained from Sequoia Research Products, Ltd. and prepared in a 2 mg/ml stock solution in phosphate buffered saline (PBS). […] PBS (Catalog No. 21-040-CV) without calcium and magnesium was obtained from Cellgro. Penicillin/Streptomycin (Pen/Strep) was obtained from Gibco and prepared 100× in PBS.
RPMI medium (1×) was prepared by dissolving 10.4 g powdered medium in 800 ml water. A buffer of 34.52 g MOPS was added. While stirring, pH was adjusted to 7.0 with 10 N NaOH. Next, 10 ml uridine solution and 50 ml glucose solution were added. The final volume was adjusted to 1000 ml, and filter sterilized.
The following yeast strains were used in this study: C. albicans CaCi-2. Fungal inoculum was prepared as follows: 500 μl of strain was inoculated from cryopreserved stock into a 250-ml shaker flask containing 30 ml growth medium and shaken overnight at 30° C. The optical density (OD 600) of 1 ml fungal culture in a cuvette was read using a standard optical density reader (Eppendorf BioPhotometer Plus), with growth medium as a background blank. The desired volume of fungal inoculums was diluted to desired volume of fungal inoculums according to the following formula: (1/OD measured)×(Desired Final Volume of Inoculum)×0.3=Volume of fungal culture (μl) to add to desired volume of growth medium. When added to media in wells, this yields a calculated starting OD of the fungal inoculum of 0.00015.
Fluconazole stock solution was added to the fungal inoculum to achieve 8 μg/ml. Pen/Strep was added to the media to a 1% concentration (v/v). A Thermo Combi nL was used to dispense 20 μl/well of assay media into all wells. Geldanamycin was dispensed in positive control wells using Thermo Combi nL for a final concentration of 3 μM. Then, 100 nl of test compound was pinned from compound plates into assay plates using a CyBi-Well pin tool. A further 20 μl/well of culture was dispensed into the assay media in all wells. The plates were incubated in a humidified (90% humidity) Liconic incubator at 37° C. without agitation for 48 hours. Alamar Blue was diluted 1:40 in Ca/Mg-free PBS. To all plates, […] of the diluted Alamar Blue was added to the plates to a final dilution factor of 1:200. The plates were incubated for an additional 2 hours. Then, Relative Fluorescence Intensity (RFU) of each well was read on standard plate reader as a measure of relative fungal growth.

[2] = system: C. albicans CaCi-8; experiment: microbe, parasite or virus in culture; assay type: cell-based, Candida albicans
Experimental: This subset was re-subjected to the primary assay and was also tested concurrently in two secondary assays. Secondary assay 1 measured chemosensitization of the more resistant CaCi-8 strain. Secondary assay 2 eliminated anything with inherently antifungal activity. […] A final assay (secondary assay 3) was incorporated to discard any compound displaying toxicity to mammalian fibroblasts. […] This screening campaign is also illustrated in FIG. 3B.
Those that inhibited growth in the resistant strain were also tested for toxicity against Candida in the absence of fluconazole and for toxicity against mammalian cells using a fluorescence reporter assay. The positive control for screening in the Candida and mammalian cell assays was the Hsp90 inhibitor geldanamycin (acting in concert with fluconazole; FIG. 4). Compounds that passed these four hurdles were binned through use of a Saccharomyces assay to determine whether the mechanism of action might be through the Hsp90 pathway, the calcineurin pathway, or an uncategorized mechanism.

[3] = system: C. albicans CaCi-2; experiment: Secondary single-agent (no-fluconazole) activity assay; assay type: cell-based, Candida albicans; conditions: in the absence of fluconazole; read-out: Target Potency (μM) Mean ± S.E.M CaCi-2^b IC50
Experimental: Clear, flat-bottom, black, 384-well plates were obtained from Corning. […] Pen/Strep was obtained from Gibco and prepared 100× in PBS. Fluconazole was obtained from Sigma and prepared in 2 mg/ml stock solution in PBS. Alamar Blue was obtained from Biosource International (Catalog No. DAL1100). Phosphate buffered solution (PBS) without calcium and magnesium was obtained from Cellgro.
Fungal inoculum was prepared as follows: 500 μl of yeast was inoculated from cryopreserved stock into a 250-ml shaker flask containing 30 ml growth medium and shaken overnight (16 hours) at 30° C. The culture was spun down, and the broth was poured off and washed with RPMI medium. The culture was spun down again, and the broth was poured off and resuspended in RPMI medium. The OD 600 of 1 ml of fungal culture in a cuvette was read using a standard optical density reader with growth medium as a background blank. The desired volume of fungal inoculum was diluted to starting OD of the fungal inoculum of 0.00015 A600.
Pen/Strep was added to the media to a final 1% concentration. A Combi NL (Thermo) was used to dispense 20 μl/well of assay media into all wells. Geldanamycin (1.5 mM) and fluconazole (0.2 mg/ml) were mixed for the positive control. Then, 80 nl of positive control solution was dispensed into the positive control wells using Thermo Combi nL for a final concentration of 3 μM geldanamycin and 8 μg/ml fluconazole. Then, 100 nl of test compound were pinned from the compound plates into assay plates using a CyBi-Well pin tool. A further 20 μl/well of RPMI synthetic defined medium culture was dispensed into 384-well, black plates. Fungal suspension (20 μl/well) was dispensed into all wells. The plates were incubated in a humidified (90% humidity) Liconic incubator at 37° C. without agitation for 48 hours. Alamar Blue Reagent was diluted 1:40 in Ca/Mg-free PBS. To all plates, 6.4 μl/well of the diluted Alamar Blue was added to the plates to a final dilution factor of 1:200. The plates were incubated for 2 hours at room temperature. Next, RFU of wells was read on a standard plate reader as a measure of relative fungal growth.

[4] = Plasma stability; conditions: % remaining in human plasma after a 5-hour incubation
[5] = Plasma protein binding; conditions: % bound in human plasma
[6] = 37° C., 48 hours, with 8 μg/mL (26 μM) fluconazole, average of at least three experiments, read-out: CaCi-2 IC50
[7] = 37° C., 48 hours, with 8 μg/mL (26 μM) fluconazole, average of at least three experiments
[8] = 37° C., 48 hours, with 8 μg/mL (26 μM) fluconazole, average of at least three experiments, read-out: CaCi-8 IC50
[9] = in the presence of fluconazole, read-out: Target Potency (μM) Mean ± S.E.M CaCi-8^a IC50

| SMILES | IC50 [1, 6] | IC50 [2, 8] | IC50 [3] | IC50 [2, 9] | Plasma Stability [4] | Plasma Protein Binding [5] | also measured |
| --- | --- | --- | --- | --- | --- | --- | --- |
| COC(=O)Cn1nc(-c2cscn2)c2ccccc21 | 12.9 ± 1.7 µM | – | – | – | – | – | CaCi-8 IC50 (μM) [2, 7]: inactive |
| COC(=O)Cn1nc(-c2ccc(C#N)cc2)c2ccccc21 [Cpd 34] | – | 20.5 ± 0.3 µM | – | – | – | – | CaCi-2 IC50 (μM) [1, 7]: inactive |
| COC(=O)Cn1nc(-c2cccc(OC)c2)c2ccccc21 [Cpd 36] | 0.7 ± 0.3 µM | 1.5 ± 0.6 µM | – | – | – | – | – |
| COCCn1nc(-c2ccccc2)c2ccccc21 [Compound 49835825] | – | – | > 26 µM | > 26 µM | 70% | > 99% | – |
| COC(=O)Cn1nc(-c2ccc(Cl)cc2)c2ccccc21 [Compound 46856253] | – | – | > 26 µM | 11.6 µM | 6.4% | > 99% | – |
| COC(=O)Cn1nc(-c2ccccc2)c2cccc(C(F)(F)F)c21 [Compound 7-CF3] | – | – | – | – | – | – | CaCi-2 IC50 (μM) [1, 7]: inactive; CaCi-8 IC50 (μM) [2, 7]: inactive |
| COC(=O)C(C)(C)n1nc(-c2ccccc2)c2ccccc21 [Compound 49835873] | – | – | > 26 µM | > 26 µM | 63% | > 99% | – |
| COC(=O)Cn1nc(-c2cccc(F)c2)c2ccccc21 [Cpd 38] | 1.7 ± 0.4 µM | 4.2 ± 4.1 µM | – | – | – | – | – |
| COC(=O)Cn1nc(-c2cccc(C)c2)c2ccccc21 [Cpd 35] | 1.1 ± 0.6 µM | 1.9 ± 0.9 µM | – | – | – | – | – |
| COC(=O)Cn1nc(C2CC2)c2ccccc21 | – | – | – | – | – | – | CaCi-2 IC50 (μM) [1, 7]: inactive; CaCi-8 IC50 (μM) [2, 7]: Inactive |
| COC(=O)Cn1nc(-c2cccc(N(C)C)c2)c2ccccc21 [Cpd 37] | 0.8 ± 0.1 µM | 2 ± 0.2 µM | – | – | – | – | – |
| COC(=O)Cn1nc(-c2ccccc2OC)c2ccccc21 [Cpd 40] | 9.3 ± 3.6 µM | 11.4 ± 1.7 µM | – | – | – | – | – |
| COC(=O)Cn1nc(C2CCCCC2)c2ccccc21 | 2.3 ± 0.3 µM | 6 ± 1.7 µM | – | – | – | – | – |
| COC(=O)Cn1nc(-c2ccccc2)c2cccnc21 | – | – | – | – | – | – | CaCi-2 IC50 (μM) [1, 7]: inactive; CaCi-8 IC50 (μM) [2, 7]: inactive |
| COC(=O)Cn1nc(-c2ccccc2)c2ccc(C)cc21 [Compound 6-Me] | 5.9 ± 3.1 µM | – | – | – | – | – | CaCi-8 IC50 (μM) [2, 7]: inactive |
| COC(=O)Cn1nc(-c2ccccc2)c2ccccc21 [Compound I-16, methyl 3-phenyl-1H-indazole acetate] | – | – | – | – | – | – | IC50 ([1]; Candida albicans, CACI2, Table 12, read-out: CaCi-2 IC50 with 8 μg/ml fluconazole): 1.8 µM |
| COC(=O)Cn1ncc2ccccc21 [—H] | – | – | – | – | – | – | CaCi-2 IC50 (μM) [1, 7]: inactive; CaCi-8 IC50 (μM) [2, 7]: inactive |
| c1ccc(-c2nn(Cc3ncco3)c3ccccc23)cc1 [Compound 49835836] | – | – | > 26 µM | 34.2 ± 7.9 µM | 97% | > 99% | – |
| COC(=O)Cn1nc(-c2ccccc2)c2ccc(OC)cc21 [Compound 6-OMe] | 9.5 ± 2.5 µM | 12.4 ± 0.5 µM | – | – | – | – | – |

| SMILES | IC50 [1, 6] | IC50 [2, 8] | IC50 [3] | IC50 [2, 9] | Plasma Stability [4] | Plasma Protein Binding [5] | also measured |
| --- | --- | --- | --- | --- | --- | --- | --- |
| COC(=O)Cn1nc(-c2ccccc2)c2cc(C)ccc21 [Compound 5-Me] | 5.2 ± 2.2 µM | 8.2 ± 3.2 µM | – | – | – | – | – |
| COC(=O)Cn1nc(-c2ccccc2)c2cc(F)ccc21 [Compound 5-F] | 11.2 ± 7.2 µM | – | – | – | – | – | CaCi-8 IC50 (μM) [2, 7]: inactive |
| COC(=O)Cn1nc(-c2ccccc2)c2cc(Cl)ccc21 [Compound 9551137] | – | – | > 26 µM | 9.84 µM | < 1.0% | > 99% | – |
| COC(=O)Cn1nc(-c2ccccc2C)c2ccccc21 [Cpd 39] | 5.3 ± 0.5 µM | 7.8 ± 2.6 µM | – | – | – | – | – |
| COC(=O)Cn1nc(-c2ccc(OC)cc2)c2ccccc21 [Cpd 31] | 4.2 ± 1.7 µM | 14.1 ± 6.4 µM | – | – | – | – | – |
| CCCCn1nc(-c2ccccc2)c2ccccc21 [Compound 49835848] | – | – | > 26 µM | > 26 µM | 81% | > 99% | – |
| COC(=O)Cn1nc(-c2ccc(C(F)(F)F)cc2)c2ccccc21 [Cpd 33] | – | – | – | – | – | – | CaCi-2 IC50 (μM) [1, 7]: inactive; CaCi-8 IC50 (μM) [2, 7]: inactive |
| COC(=O)Cn1nc(-c2ccc(C)cc2)c2ccccc21 [Cpd 30] | 4.8 ± 2.5 µM | 19.5 ± 14.2 µM | – | – | – | – | – |
| O=C(O)Cn1nc(-c2ccccc2)c2ccccc21 [Compound 5309553] | – | – | > 26 µM | > 26 µM | > 99% | 97% | – |
| CC(C)(C)OC(=O)Cn1nc(-c2ccccc2)c2ccccc21 [Compound 49835839] | – | – | > 26 µM | > 26 µM | 85% | > 99% | – |
| COC(=O)Cn1nc(-c2ccc(C)cc2)c2ccccc21 [Compound 46856255] | – | – | > 26 µM | 11 µM | 4.1% | 96% | – |
| COC(=O)Cn1nc(-c2ccccc2)c2cc(OC)ccc21 [Compound 49835837] | – | – | > 26 µM | 18.5 µM | PBS Solubility: <1.0 μM Plasma Protein Binding: <1.0% Plasma Stability: <1.0% Purity (UPLC): >99% | PBS Solubility: <1.0 μM Plasma Protein Binding: <1.0% Plasma Stability: <1.0% Purity (UPLC): >99% | – |
| COC(=O)Cn1nc(-c2ccc(C#N)cc2)c2ccccc21 [Compound 49835863] | – | – | > 26 µM | 20 µM | < 1.0% | 92% | – |
| O=C(Cn1nc(-c2ccccc2)c2ccccc21)OC1CCC1 [Compound 49835870] | – | – | > 26 µM | > 26 µM | 2.0% | > 99% | – |
| COC(=O)Cn1nc(-c2ccccc2)c2ccc(OC)cc21 [Compound 49835812] | – | – | > 26 µM | 12.7 µM | 1.3% | 38% | – |
| CC(C)OC(=O)Cn1nc(-c2ccccc2)c2ccccc21 [Compound 49835820] | – | – | > 26 µM | > 26 µM | 53% | 99% | – |
| COC(=O)Cn1nc(-c2ccccc2)c2ccc(C(F)(F)F)cc21 [Compound 49835849] | – | – | > 26 µM | 32.1 µM | 1.7% | 62% | – |
| CCOC(=O)Cn1nc(-c2ccccc2)c2ccccc21 [Compound 13330959] | – | – | > 26 µM | > 26 µM | 20% | 99% | – |
